Data published in patent US8658672B2, “HIF-1α activating agent” (University of Seoul Foundation of Industrial and Academic …, priority 2006, dated 2014).
Like-named read-outs stand apart in the source and are kept apart here.

Assays:
[1] = system: CAM (choriallantoic membrane); conditions: CAM assay; for angiogenesis: filter paper with 10 or 50 μM solution 10 μl, three days
Method: Particularly, the fertilized egg was incubated in a 37° C. 55% humid incubator. 10 days later, the egg albumin was removed by using a 2 ml hypodermic syringe in order to separate CAM and yolk sac from the shell membrane. On 10.5th day, the egg shell was removed (1 cm^2). […] Three days later, 1-2 ml of 10% fat emulsion was injected into chorioallantoic membrane, followed by observation under a microscope.

VEGF [2] = conditions: 50 μM; cell line not clearly stated (SH-SY5Y implied)
Method: Total RNA was extracted by using RNase Spin column (Qiagen, USA). cDNA was synthesized from 1 μg of the extracted RNA using AMV reverse transcriptase (Promega, USA) and random hexamer (Gibco-BRL, USA). RT-PCR was performed using the synthesized cDNA as a template with a VEGF forward primer represented by SEQ. […] NO: 1 (5′-[sequence]-3′) and a VEGF reverse primer represented by SEQ. […] NO: 2 (5′-[sequence]-3′). RT-PCR conditions were as follows; predenaturation at 95° C. for 5 minutes, denaturation at 95° C. for 45 seconds, annealing at 56° C. for 45 seconds, polymerization at 72° C. for 60 seconds, 30 cycles from denaturation to polymerization. For the control, RT-PCR was performed again with an 18S forward primer represented by SEQ. […] NO: 3 (5′-[sequence]-3′) and an 18S reverse primer represented by SEQ. […] NO: 4 (5′-[sequence]-3′). RT-PCR conditions were as follows; predenaturation at 95° C. for 5 minutes, denaturation at 95° C. for 45 seconds, annealing at 56° C. for 45 seconds, polymerization at 72° C. for 60 seconds, 30 cycles from denaturation to polymerization.

VEGF [3] = assay: Effects of CQ and TPEN on the expression of VEGF, a HIF-1α target gene (RT-PCR); format: cell-based, human; conditions: TPEN 5 μM
Excerpt: ID. […] ID. NO: 2 (5′-[…]-3′). […] ID. […] ID. NO: 4 (5′-[…]-3′).

GAL4-HIF-1α = assay: HIF-1α transactivation, Gal4-driven reporter gene assay in HepG2 cells; format: cell-based, human; conditions: normoxic condition, CQ 10, 50 μM, TPEN 5 μM, 16 hours
Method: Human HepG2 hepatoma cells were cultured at the concentration of 5×10^4, which were transfected with 100 ng of Gal-4-driven reporter plasmid encoding the firefly luciferase gene under the control of the Gal4 binding site together with pGal4/HIF-1α plasmid which expresses HIF-1α linked to the DNA binding domain of the yeast Gal4 protein (amino acids 1-147). The transfected human HepG2 hepatoma cells were incubated in both normoxic and hypoxic conditions and then treated with CQ (10, 50 μM) for 16 hours in normoxic condition. 48 hours after the transfection, luciferase activities were analyzed using the reporter gene assay system (Promega, USA) and normalized by β-galactosidase activities.

human cancer cell lines = conditions: several human cancer cell lines; cited from earlier work
APP2576 transgenic mice = conditions: cited from earlier work
[4] = system: HRE (hypoxia-response element); assay: HRE dependent gene expression in HepG2 hepatoma cells (luciferase reporter gene assay); format: cell-based, human; conditions: p(HRE)4-luc, TPEN 5, 10 μM, CQ 10, 50 μM, 16 hours
Method: Human HepG2 hepatoma cells were grown to the density of 5×10^4 and then transfected with 100 ng of HRE-driven reporter plasmid, p(HRE)4-luc together with plasmid pCHO110 which encodes β-galactosidase. The transfected human HepG2 hepatoma cells were cultured under normoxic condition and hypoxic condition and then treated with TPEN (5, 10 μM) and CQ (10, 50 μM) for 16 hours each. 48 hours after the transfection, luciferase activities were analyzed using the reporter gene assay system (Promega, USA) and normalized by β-galactosidase activities.

FIH-1 [5] = target: T1, FIH-1 (Homo sapiens, UniProt Q9NWT6); assay: In vitro FIH-1 activity (capture of radio-labeled HIF-1α by GST-CBP); format: biochemical; set-up: histidine tag; made in house; host or cells: E. coli
Method: The human FIH-1 gene (AF395830) was cloned into pET28a vector (Novagen, USA) and FIH-1 was overexpressed in E. coli as a histidine-tagged fusion protein and purified by Ni-affinity chromatography. The fusion protein was purified by gel-filtration chromatography (Hi-Load Superdex 200) and concentrated by ultrafiltration (Choi et al., Mol Pharmacol 68:1803-1809, 2005).
The resin-bound GST-CBP N-domain (amino acids 1-450) (Kamei et al., Cell 85:403-414, 1996) was then added to 1 μg of each mixture in 500 μl of binding buffer (200 mM Tris-HCl (pH 8.0), 150 mM NaCl, 20 μM ZnCl2, 0.5 mM DTT) and incubation continued for one hour at 4° C. Glutathione-uniflow resin bound protein was washed four times with 1 ml of 0.1% Nondiet P-40 containing binding buffer, and visualized by SDS-PAGE by eluting using SDS sample buffer (Dann et al., Proc Natl Acad Sci USA 99:15351-15356, 2002). The present inventors substituted the asparagine-803 residue of HIF-1α with alanine to generate HIF-1α mutant [HIF-1α-C(N803A)], followed by investigation on FIH-1 activity by the same manner as described above.
Radio-labeled HIF-1α was reacted with the purified recombinant FIH-1, in the presence or absence of CQ or TPEN. FIH-1 was expected to […] the asparagine-803 residue of HIF-1α and thus inhibit the interaction with CBP binding to HIF-1α transactivation domain (Mahon, P. C. et al., Genes Dev. 15, 2675-2686, 2001; Dannm C. E. R., et al., Proc. Natl. Acad. Sci. USA 99, 15351-15356, 2002; Lando, D., et al., Science 295, 858-861, 2002; Freedman, S. J. et al., Proc. Natl. Acad. Sci. USA 99, 5367-5372, 2002).

[6] = cited from earlier work
[7] = system: patients with Alzheimer's disease; conditions: phase II clinical trial; cited from earlier work
[8] = in vivo; cited from earlier work
VEGF [9] = conditions: normoxic condition, CQ 10, 50 μM, 16 hours; HepG2 and SH-SY5Y cells
Method: (§1) Total RNA was extracted by using RNase Spin column (Qiagen, USA). VEGF expression was investigated by Northern blot analysis. Northern blot hybridization was performed using ^32P-labeled VEGF cDNA probe and ^32P-labeled EPO cDNA probe. The Northern blotting was performed by the conventional method well known to those in the art (Sambrook et al., Molecular cloning, 1989).

EPO = conditions: normoxic condition, CQ 10, 50 μM, 16 hours; HepG2 and SH-SY5Y cells
Method: as §1

FIH-1 [10] = target: T1, FIH-1; conditions: F-HIF-1α peptide 4 μM, recombinant FIH-1, MALDI-TOF
Method: The present inventors examined FIH-1 activity by measuring the asparagine hydroxylation of F-HIF-1α peptide. The peptide hydroxylation was measured by mass spectrophotometry.
Particularly, F-HIF-1α (788-822 amino acids: FITC-aca-[sequence]) containing fluorescein and aca (aminocaproic acid) linker (AnyGen, KwangJu, Korea) at N-terminal was reacted with FIH-1 protein. The F-HIF-1α peptide was incubated at a final concentration of 4 μM with 2.8 μg of recombinant FIH-1 in reaction solution [20 mM Tris buffer (pH 7.5), 5 mM KCl, 1.5 mM MgCl2, 100 μM α-ketoglutarate and 400 μM ascorbic acid: final volume 50 μl]. After incubation with agitation for 2 hours at room temperature, excess salts were removed with ZipTipC18 (Millipore, USA). The F-HIF-1α peptide was eluted from the tip with a-cyano-4-hydroxycinnamic acid in acetonitrile/water (50:50 v/v) containing 0.1% TFA followed by washing with distilled water containing 0.1% TFA. The eluted peptide solution was transferred to a MALDI sample plate and MALDI-TOF measurements were performed with a Voyager analyzer (Applied Biosystems, USA).

[11] = used as an antibiotic in the mid-1900s, Japan; cited from earlier work
[12] = 10 μM solution 10 μl (lower amount, 30.3-39.7 ng)
[13] = 50 μM solution 10 μl (higher amount, 151.5-198.5 ng)

T1 sequence (Q9NWT6 whole entry, the tested form may be a part): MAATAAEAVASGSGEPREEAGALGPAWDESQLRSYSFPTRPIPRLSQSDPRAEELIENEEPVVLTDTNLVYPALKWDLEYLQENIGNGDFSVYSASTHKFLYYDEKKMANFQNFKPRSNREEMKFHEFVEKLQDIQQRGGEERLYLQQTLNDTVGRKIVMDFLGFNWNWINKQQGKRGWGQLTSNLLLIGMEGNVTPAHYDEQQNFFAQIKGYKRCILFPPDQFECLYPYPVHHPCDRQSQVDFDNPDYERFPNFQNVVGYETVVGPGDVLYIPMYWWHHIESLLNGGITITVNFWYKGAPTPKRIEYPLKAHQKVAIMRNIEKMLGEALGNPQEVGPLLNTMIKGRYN

For Oc1c(I)cc(I)c2cccnc12 [B, 5,7-diiodo-8-hydroxyquinoline], the “Angiogenesis/total (No.)” value [1, 12] was 5/7, the “Angiogenesis/total (No.)” value [1, 13] was 4/6 and the angiogenesis [1] was “promote angiogenesis”.

With Oc1c(Br)cc(Br)c2cccnc12 [C, 5,7-dibromo-8-hydroxyquinoline] the “Angiogenesis/total (No.)” value [1, 12] was 4/6, the “Angiogenesis/total (No.)” value [1, 13] was 3/5 and the angiogenesis [1] was “promote angiogenesis”. The “VEGF expression, % to the expression level induced by CQ” value (VEGF [2]) was 60-70%.

With Oc1c(I)cc(Cl)c2cccnc12 [CQ, 5-chloro-7-iodo-8-quinolinol] the VEGF expression (VEGF [3]; HepG2 cells, normoxic, CQ 10, 100 μM) was “differed in their effects on VEGF expression”, the VEGF expression (VEGF [3]; SH-SY5Y cells, normoxic condition, CQ 10, 100 μM) was “increased VEGF expression” and the VEGF expression (VEGF [3]; hypoxic condition, 16 hours, CQ 100 μM, SH-SY5Y and HepG2 cells) was “none of the control, TPEN and CQ increased VEGF expression”. The “transactivation activity of HIF-1α” value (GAL4-HIF-1α) was “increased transactivation activity of HIF-1α”, the apoptotic cell death (human cancer cell lines) was “causes apoptotic cell death” and the “amyloid beta plaques and serum levels of amyloid beta” value (APP2576 transgenic mice) was “reduced both amyloid beta plaques and serum levels of amyloid beta”. The systemic adverse effects (APP2576 transgenic mice) was “without systemic adverse effects”, the “HIF-1α dependent hypoxia-response element (HRE) activity” value [4] was “induced HIF-1α dependent hypoxia-response element (HRE) activity” and the FIH-1 activity (FIH-1 [5]; CQ 10 μM and 50 μM, interaction between HIF-1α and CBP as readout) was “FIH-1 activity was reduced”. For the same compound, the “interaction between CBP and HIF-1α-C(N803A) mutant” value (FIH-1 [5]; HIF-1α-C(N803A) mutant, presence or absence of CQ or FIH-1) was “did not change the interaction between CBP and HIF-1α-C (N803A)”, the “effect of Cu(II) on the inhibition of FIH-1 activity by CQ” value (FIH-1 [5]; co-treatment with Cu(II)) was “failed to reverse the inhibitory effect of CQ” and the “effect of Zn(II) on the inhibition of FIH-1 activity by CQ” value (FIH-1 [5]; co-treatment with Zn(II)) was “failed to reverse the inhibitory effect of CQ”. For the same compound, the “pKa value, Ca2+” value ([6]; Ca^2+) was 8.1, the “pKa value, Cu2+” value ([6]; Cu^2+) was 15.8 and the “pKa value, Mg2+” value ([6]; Mg^2+) was 8.6. The “pKa value, Zn2+” value ([6]; Zn^2+) was 12.5, the cognitive decline [7] was “slowed cognitive decline” and the “plasma amyloid beta concentrations” value [7] was “decreased plasma amyloid beta concentrations”. For the same compound, the “crossing of the blood-brain barrier” value [8] was “able to cross the blood-brain barrier”, the “Angiogenesis/total (No.)” value [1, 12] was 8/12 and the “Angiogenesis/total (No.)” value [1, 13] was 8/12. The angiogenesis [1] was “promote angiogenesis”, the “expression of VEGF” value (VEGF [9]) was “increased expressions of VEGF and EPO” and the “expression of EPO” value (EPO) was “increased expressions of VEGF and EPO”. The “asparagine-hydroxylating activity of FIH-1” value (FIH-1 [10]) was “inhibits the asparagine-hydroxylating activity of FIH-1” and the “adverse effect in people” value [11] was “caused subacute myelo-optic neuropathy”.
